In BindingDB's records for doi:10.1021/ml5001867 (Abbvie, 2014):

Test: Inhibition of BCL-XL (unknown origin) expressed in mcl-1 deficient MEF assessed as induction of cell killing incubated for 48 hrs in presence of 10% FBS by Cell titerGlo reagent based assay

SMILES	EC50 [nM]
O=C(Nc1nc2ccccc2s1)c1cccc2c1CN(c1nc(C(=O)O)c(CCCOc3ccc(-n4ncc5cncnc54)cc3)s1)CC2	60
O=C(Nc1nc2ccccc2s1)c1cccc2c1CN(c1nc(C(=O)O)c(CCCCOc3ccc(-n4ncc5cncnc54)cc3)s1)CC2	> 5000
O=C(Nc1nc2ccccc2s1)c1cccc2c1CN(c1nc(C(=O)O)c(CCCOc3cccc(-n4ncc5cncnc54)c3)s1)CC2	> 5000
CN1CCN(CCCNc2ncnc3c2cnn3-c2ccc(OCCCc3sc(N4CCc5cccc(C(=O)Nc6nc7ccccc7s6)c5C4)nc3C(=O)O)cc2)CC1	20
O=C(Nc1nc2ccccc2s1)c1cccc2c1CN(c1nc(C(=O)O)c(CCCOc3ccc(-n4cccn4)cc3)s1)CC2	640
O=C(Nc1nc2ccccc2s1)c1cccc2c1CN(c1nc(C(=O)O)c(CCOc3cccc(-n4ncc5cncnc54)c3)s1)CC2	> 5000
O=C(Nc1nc2ccccc2s1)c1cccc2c1CN(c1nc(C(=O)O)c(CCOc3ccc(-n4ncc5cncnc54)cc3)s1)CC2	> 5000
CN(C)CCCNc1ncnc2c1cnn2-c1ccc(OCCCc2sc(N3CCc4cccc(C(=O)Nc5nc6ccccc6s5)c4C3)nc2C(=O)O)cc1	10
